Laboratory results as given in patent US8202696B2, “Means for use in treating diseases correlated with or caused by non-physiological levels of microtubule-associated PP2Ac” (Max-Planck-Gessellschaft zur Forderung der Wissenschaften …, priority 2002, dated 2012).
Where no end group is shown, it is not given here.

How the values were obtained:
Assay type in all cases: cell-based
patched gene = test: Patched-specific semiquantitative RT-PCR of HeLa cells; settings: compared to mock-transfected cells
Description: One of the most important targets of the Gli3 transcription factor is the patched gene. In order to analyse HeLa cells for Gli3 activity after treatment with the different molecules, semiquantitative RT-PCR of cells overexpressing the B-Box1 and the α4 protein was carried out (FIG. 13). HeLa cells have previously been tested for Gli3-, Gli1 (another target of the Gli3 transcription factor) and patched-expression.

Gli3 = test: Localization of overexpressed GFP-tagged Gli3 in HeLa cells; settings: GFP-tagged Gli3-overexpressing HeLa cells
Description: 1×10^5 HELA cells per well of a 6-well plate were transfected with Qiagen Polyfect transfection reagent according to the manufacturer's instructions. The ratio of the amount of DNA to the amount of polyfect transfection reagent was 3 μg DNA/10 μl Polyfect. Constructs used for expression in HELA were the following: GFP-GLI3 (aa 18-1549), GLI3-GFP (aa 1-1522), MYC-GLI3 (aa 18-1596), FLAG-GLI3 (aa18-1596), MYC-B-BOX1 (aa 110-167 of the MID1 protein), ALPHA4-V5 (aa 1-339). 24 h after transfection immunofluorescence was performed. GFP-constructs were treated as described in Schweiger et al., 1999. Immunofluorescence with MYC-tagged and FLAG-tagged constructs was done according to Trockenbacher et al., 2001. FLAG-tagged constructs were detected with anti-FLAG-antibody diluted 1:500, the secondary antibody FITC-antimouse was diluted 1:1000. For MYC-tagged constructs anti-MYC-antibody 1:300 and CY3-antirabbit 1:1000 were used. […]
Overexpressed Gli3 is predominantly localized in the nucleus (FIG. 10, top left).

MID1/PP2A complex = biological target: T1, MID1/PP2A complex (Homo sapiens, UniProt P78318); test: hFused phosphorylation in cells co-expressing hFused and B-Box1, Western blot
T1 construct: endogenous in cells
T1 sequence (P78318 1-339): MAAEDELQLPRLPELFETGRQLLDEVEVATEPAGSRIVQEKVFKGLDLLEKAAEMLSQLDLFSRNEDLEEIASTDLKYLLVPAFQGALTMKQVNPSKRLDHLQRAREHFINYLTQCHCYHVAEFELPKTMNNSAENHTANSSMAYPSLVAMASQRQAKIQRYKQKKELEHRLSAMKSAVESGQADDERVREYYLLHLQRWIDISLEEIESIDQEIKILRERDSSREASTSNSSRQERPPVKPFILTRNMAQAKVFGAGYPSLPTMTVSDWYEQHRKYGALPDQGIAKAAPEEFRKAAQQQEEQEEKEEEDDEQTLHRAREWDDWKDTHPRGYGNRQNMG
Description: 8×10^5 cells were transfected with hFused-V5 (aa 1-1335) in presence and absence of MYC-B-BOX1 (aa 110-167 of the MID1 protein) using Qiagen polyfect transfection reagent according to the manufacturer's instructions. Cell pellets were resuspended in magic mix (48% urea, 15 mM Tris-HCl, 8.7% glycerin, 1% SDS, 0.004% Bromphenol Blue, 143 mM β-Mercaptoethanol). After sonification, cell lysate of cells expressing hFused and hFused together with B-Box1 was separated on a 6% SDS-gel (200 μg protein loaded in each lane), blotted on PVDF-membranes and incubated with anti-V5-antibody (1:3000). Secondary HRP-antimouse-antibody was diluted 1:2000.
A dominant-negative effect of the B-Box1-peptide leading to an inhibition of […] induced ubiquitination of microtubules-associated PP2A and resulting in a enrichment of microtubules-associated PP2A was shown previously.
Cell lysate of cells expressing only hFused (con) and hFused together with the B-Box1 (+B-Box1) was separated on an SDS-Page, blotted and incubated with an anti-V5-antibody. In order to stop all kinase and phosphatases directly after cell lysis, cells were lysed in an SDS- and urea-containing buffer.

## B-Box1: peptide derived from the MID1 domain that is responsible for α4 binding (amino acids 108-165), expressed from plasmid (ANTMTSAEKVLCQFCDQDPAQDAVKTCVTCEVSYCDECLKATHPNKKPFTGHRLIEPI; cysteine pairing not given here; also: myc tag; UniProt O15344 108-165, looked up, fragment)
Patched gene
  patched message: significant reduction of the patched message
Gli3
  Gli3 localization: significant retention of the active form of Gli3 in the cytosol
MID1/PP2A complex; FIG. 15c, control 10.3
  Ratio between phosphorylated and dephosphorylated hFused-form: 3
MID1/PP2A complex; FIG. 16c, reproduction, control 8.3
  Ratio between phosphorylated and dephosphorylated hFused-form: 3
